Data from ChEMBL document CHEMBL1240303, “Inhibiting transcription of chromosomal DNA with antigene peptide nucleic acids” (2005).
Active and inactive are the calls of the source. The rule behind the calls is not given here.

What was measured:
T47D [1] = test: Inhibition of human progesterone receptor A protein expression transfected in human T47D cells at 25 nM by Western blot; format: functional, cell-based
T47D [2] = test: Inhibition of human progesterone receptor B protein expression transfected in human T47D cells at 25 nM by Western blot; format: functional, cell-based
T47D [3] = test: Inhibition of human progesterone receptor A protein expression transfected in human T47D cells at 200 nM by Western blot; format: functional
T47D [4] = test: Inhibition of human progesterone receptor B protein expression transfected in human T47D cells at 200 nM by Western blot; format: functional
T47D [5] = test: Inhibition of human progesterone receptor A protein expression transfected in human T47D cells at 200 nM in presence of 10 nM of estradiol by Western blot; format: functional, cell-based
T47D [6] = test: Inhibition of human progesterone receptor B protein expression transfected in human T47D cells at 200 nM in presence of 10 nM of estradiol by Western blot; format: functional, cell-based
T47D [7] = test: Inhibition of human progesterone receptor A gene expression transfected in human T47D cells at 200 nM by RT-PCR; format: functional, cell-based
T47D [8] = test: Inhibition of human progesterone receptor B gene expression transfected in human T47D cells at 200 nM by RT-PCR; format: functional, cell-based
T47D [9] = test: Induction of morphology changes in human T47D cells expressing human progesterone receptor assessed as increase in cell height by confocal microscopy; format: functional, cell-based
T47D [10] = test: Reduction in cell proliferation of human T47D cells expressing human progesterone receptor by FACS method; format: functional, cell-based
T47D [11] = test: Increase in Ezrin mRNA expression in human T47D cells expressing human progesterone receptor by RT-PCR relative to untreated control; format: functional

Row | SMILES | inhibition (T47D [1]) | inhibition (T47D [2]) | inhibition at 0.2 µM (T47D [3]) | inhibition at 0.2 µM (T47D [4]) | inhibition (T47D [5]) | inhibition (T47D [6]) | inhibition (T47D [7]) | inhibition (T47D [8]) | Activity (T47D [9]) | Activity (T47D [10]) | fold change (FC) (T47D [11])
1 | Cc1cn([C@@H]2O[C@H](COP(=O)(O)O[C@H]3[C@@H](O)[C@H](n4cnc5c(=O)[nH]c(N)nc54)O[C@@H]3COP(=O)(O)O[C@H]3[C@@H](O)[C@H](n4ccc(=O)[nH]c4=O)O[C@@H]3COP(=O)(O)O[C@H]3[C@@H](O)[C@H](n4cnc5c(N)ncnc54)O[C@@H]3COP(=O)(O)O[C@H]3C[C@H](n4ccc(N)nc4=O)O[C@@H]3COP(=O)(O)O[C@H]3[C@@H](O)[C@H](n4ccc(=O)[nH]c4=O)O[C@@H]3COP(=O)(O)O[C@H]3C[C@H](n4cnc5c(=O)[nH]c(N)nc54)O[C@@H]3COP(=O)(O)O[C@H]3[C@@H](O)[C@H](N4CC=C(N)NC4=O)O[C@@H]3COP(=O)(O)O[C@H]3[C@@H](O)[C@H](n4ccc(=O)[nH]c4=O)O[C@@H]3COP(=O)(O)O[C@H]3[C@@H](O)[C@H](n4cnc5c(=O)[nH]c(N)nc54)O[C@@H]3COP(=O)(O)O[C@H]3[C@@H](O)[C@H](n4cnc5c(N)ncnc54)O[C@@H]3COP(=O)(O)O[C@H]3[C@@H](O)[C@H](n4ccc(N)nc4=O)O[C@@H]3COP(=O)(O)O[C@H]3[C@@H](O)[C@H](n4ccc(N)nc4=O)O[C@@H]3COP(=O)(O)O[C@H]3[C@@H](O)[C@H](n4ccc(=O)[nH]c4=O)O[C@@H]3COP(=O)(O)O[C@H]3C[C@H](n4cnc5c(=O)[nH]c(N)nc54)O[C@@H]3COP(=O)(O)O[C@H]3[C@@H](O)[C@H](n4cnc5c(N)ncnc54)O[C@@H]3COP(=O)(O)O[C@H]3[C@@H](O)[C@H](n4cnc5c(=O)[nH]c(N)nc54)O[C@@H]3COP(=O)(O)O[C@H]3[C@@H](O)[C@H](n4cnc5c(=O)[nH]c(N)nc54)O[C@@H]3COP(=O)(O)O[C@H]3[C@@H](O)[C@H](n4cnc5c(=O)[nH]c(N)nc54)O[C@@H]3COP(=O)(O)O[C@H]3[C@@H](O)[C@H](n4cnc5c(=O)[nH]c(N)nc54)O[C@@H]3CO)[C@@H](OP(=O)(O)OC[C@H]3O[C@@H](n4cc(C)c(=O)[nH]c4=O)C[C@@H]3O)[C@H]2O)c(=O)[nH]c1=O | Active | Active | – | – | – | – | – | – | – | – | –
2 | Cc1cn(CC(=O)N(CCNC(=O)CN(CCNC(=O)CN(CCNCC(=O)N(CCNC(=O)CN(CCNC(=O)CN(CCNC(=O)CN(CCNC(=O)CN(CCNC(=O)CN(CCNC(=O)CN(CCNC(=O)CN(CCNC(=O)CN(CCNC(=O)CN(CCNC(=O)CN(CCNC(=O)CN(CCNC(=O)CNC(=O)[C@@H](N)CCCCN)C(=O)Cn2c(N)ccnc2=O)C(=O)Cn2cnc3c(N)ncnc32)C(=O)Cn2cc(C)c(=O)[nH]c2=O)C(=O)Cn2cnc3nc(N)[nH]c(=O)c32)C(=O)Cn2cnc3c(N)ncnc32)C(=O)Cn2c(N)ccnc2=O)C(=O)Cn2cnc3nc(N)[nH]c(=O)c32)C(=O)Cn2cnc3c(N)ncnc32)C(=O)Cn2c(N)ccnc2=O)C(=O)Cn2cc(C)c(=O)[nH]c2=O)C(=O)Cn2cnc3nc(N)[nH]c(=O)c32)C(=O)Cn2cnc3nc(N)[nH]c(=O)c32)C(=O)Cn2cnc3c(N)ncnc32)C(=O)Cn2c(N)ccnc2=O)CC(=O)NCCN(CC(=O)NCCN(CC(=O)NCCN(CC(=O)NCCN(CC(=O)N[C@@H](CCCCN)C(=O)O)C(=O)Cn2c(N)ccnc2=O)C(=O)Cn2c(N)ccnc2=O)C(=O)Cn2c(N)ccnc2=O)C(=O)Cn2c(N)ccnc2=O)c(=O)[nH]c1=O | Active | Active | – | – | – | – | – | – | – | – | –
3 | Cc1cn(CC(=O)N(CCNC(=O)CN(CCNC(=O)CN(CCNC(=O)CNC(=O)[C@@H](N)CCCCN)C(=O)Cn2cc(C)c(=O)[nH]c2=O)C(=O)Cn2cnc3c(=O)[nH]c(N)nc32)CC(=O)NCCN(CC(=O)NCCN(CC(=O)NCCN(CC(=O)NCCN(CC(=O)NCCN(CC(=O)NCCN(CC(=O)NCCN(CC(=O)NCCN(CC(=O)NCCN(CC(=O)NCCN(CC(=O)NCCN(CC(=O)NCCN(CC(=O)NCCN(CC(=O)NCCN(CC(=O)NCCN(CC(=O)NCCN(CC(=O)N[C@@H](CCCCN)C(=O)O)C(=O)Cn2ccc(N)nc2=O)C(=O)Cn2cnc3c(=O)[nH]c(N)nc32)C(=O)Cn2cnc3c(N)ncnc32)C(=O)Cn2ccc(N)nc2=O)C(=O)Cn2cnc3c(N)ncnc32)C(=O)Cn2ccc(N)nc2=O)C(=O)Cn2ccc(N)nc2=O)C(=O)Cn2cc(C)c(=O)[nH]c2=O)C(=O)Cn2cnc3c(=O)[nH]c(N)nc32)C(=O)Cn2cnc3c(N)ncnc32)C(=O)Cn2ccc(N)nc2=O)C(=O)Cn2ccc(N)nc2=O)C(=O)Cn2cnc3c(=O)[nH]c(N)nc32)C(=O)Cn2cnc3c(=O)[nH]c(N)nc32)C(=O)Cn2cc(C)c(=O)[nH]c2=O)C(=O)Cn2ccc(N)nc2=O)c(=O)[nH]c1=O | Active | Active | 75% | 75% | Active | Active | inactive | inactive | Active | Active | 5
4 | Cc1cn(CC(=O)N(CCNC(=O)CN(CCNC(=O)CNC(=O)[C@H](N)CCCCN)C(=O)Cn2c(N)ccnc2=O)CC(=O)NCCN(CC(=O)NCCN(CC(=O)NCCN(CC(=O)NCCN(CC(=O)NCCN(CC(=O)NCCN(CC(=O)NCCN(CC(=O)NCCN(CC(=O)NCCN(CC(=O)NCCN(C(=O)CNCCN(CC(=O)NCCN(CC(=O)NCCN(CC(=O)NCCN(CC(=O)NCCN(CC(=O)NCCN(CC(=O)NCCN(CC(=O)N[C@@H](CCCCN)C(=O)O)C(=O)Cn2c(N)ccnc2=O)C(=O)Cn2cnc3nc(N)[nH]c(=O)c32)C(=O)Cn2c(N)ccnc2=O)C(=O)Cn2c(N)ccnc2=O)C(=O)Cn2cc(C)c(=O)[nH]c2=O)C(=O)Cn2c(N)ccnc2=O)C(=O)Cn2cnc3c(N)ncnc32)C(=O)Cn2c(N)ccnc2=O)C(=O)Cn2cnc3nc(N)[nH]c(=O)c32)C(=O)Cn2cc(C)c(=O)[nH]c2=O)C(=O)Cn2c(N)ccnc2=O)C(=O)Cn2cnc3c(N)ncnc32)C(=O)Cn2c(N)ccnc2=O)C(=O)Cn2c(N)ccnc2=O)C(=O)Cn2cnc3c(N)ncnc32)C(=O)Cn2cnc3nc(N)[nH]c(=O)c32)C(=O)Cn2cc(C)c(=O)[nH]c2=O)c(=O)[nH]c1=O | inactive | inactive | – | – | – | – | – | – | – | – | –
